Assay: Phase I study (NCT03386526): safety and tolerability
Experimental: The Phase I dose escalation study included two parts.
Pembrolizumab was administered 200 mg IV on day 1 of a 21-day-cycle, until disease progression or untolerated toxicity.
The inclusion criteria for the Phase I study are: Age≥18 years; ECOG PS: 0-1;
Adequate hematologic, renal and liver functions; Advanced or metastatic solid tumor patients must be refractory to or intolerant of existing therapy(ies) known to provide clinical benefit for their condition.

With `CN[C@@H](C)C(=O)N[C@H]1CN(S(=O)(=O)c2cccc(S(=O)(=O)N3CC[C@H]4CC[C@@H](C(=O)NC(c5ccccc5)c5ccccc5)N4C(=O)[C@@H](NC(=O)[C@H](C)NC)C3)c2)CC[C@H]2CC[C@@H](C(=O)NC(c3ccccc3)c3ccccc3)N2C1=O` [APG-1387] the “TRAEs (all Grades): Nausea, patients” value (APG-1387 45 mg) was 1, the “TRAEs (all Grades): Peripheral sensory neuropathy, % of patients” value (APG-1387 45 mg) was “(7.7%)” and the “TRAEs (all Grades): Peripheral sensory neuropathy, patients” value (APG-1387 45 mg) was 1. The “TRAEs (all Grades): Phlebitis, patients” value (APG-1387 45 mg) was 0, the “TRAEs (all Grades): Pneumonitis, patients” value (APG-1387 45 mg) was 0 and the “TRAEs (all Grades): Pruritus, patients” value (APG-1387 45 mg) was 0. For the same molecule, the “TRAEs (all Grades): Rash maculo-papular, patients” value (APG-1387 45 mg) was 0, the “TRAEs (all Grades): Tumor pain, patients” value (APG-1387 45 mg) was 0 and the “# of pts discontinued treatment: Adverse Event” value (APG-1387 60 mg) was 2. The “# of pts discontinued treatment: Clinical progression” value (APG-1387 60 mg) was 1, the “# of pts discontinued treatment: Disease progression” value (APG-1387 60 mg) was 1 and the “# of pts discontinued treatment: Lack of efficacy” value (APG-1387 60 mg) was 0. For the same molecule, the “TRAEs (all Grades): Aspartate aminotransferase increased, patients” value (APG-1387 60 mg) was 0, the “TRAEs (all Grades): Bell's palsy, % of patients” value (APG-1387 60 mg) was “(20.0%)” and the “TRAEs (all Grades): Bell's palsy, patients” value (APG-1387 60 mg) was 1. For the same molecule, the “TRAEs (all Grades): Blood bilirubin increased, % of patients” value (APG-1387 60 mg) was “(20.0%)”, the “TRAEs (all Grades): Blood bilirubin increased, patients” value (APG-1387 60 mg) was 1 and the “TRAEs (all Grades): Decreased appetite, patients” value (APG-1387 60 mg) was 0. The “TRAEs (all Grades): Dehydration, patients” value (APG-1387 60 mg) was 0, the “TRAEs (all Grades): Diarrhoea, patients” value (APG-1387 60 mg) was 0 and the “TRAEs (all Grades): Dyspepsia, patients” value (APG-1387 60 mg) was 0. The “TRAEs (all Grades): Eructation, patients” value (APG-1387 60 mg) was 0, the “TRAEs (all Grades): Fatigue, patients” value (APG-1387 60 mg) was 0 and the “TRAEs (all Grades): Headache, % of patients” value (APG-1387 60 mg) was “(20.0%)”. For the same molecule, the “TRAEs (all Grades): Headache, patients” value (APG-1387 60 mg) was 1, the “TRAEs (all Grades): Lipase increased, % of patients” value (APG-1387 60 mg) was “(20.0%)” and the “TRAEs (all Grades): Lipase increased, patients” value (APG-1387 60 mg) was 1. The “TRAEs (all Grades): Myalgia, patients” value (APG-1387 60 mg) was 0, the “TRAEs (all Grades): Nausea, patients” value (APG-1387 60 mg) was 0 and the “TRAEs (all Grades): Peripheral sensory neuropathy, patients” value (APG-1387 60 mg) was 0. For the same molecule, the “TRAEs (all Grades): Phlebitis, patients” value (APG-1387 60 mg) was 0, the “TRAEs (all Grades): Pneumonitis, % of patients” value (APG-1387 60 mg) was “(20.0%)” and the “TRAEs (all Grades): Pneumonitis, patients” value (APG-1387 60 mg) was 1. For the same molecule, the “TRAEs (all Grades): Pruritus, % of patients” value (APG-1387 60 mg) was “(20.0%)”, the “TRAEs (all Grades): Pruritus, patients” value (APG-1387 60 mg) was 1 and the “TRAEs (all Grades): Rash maculo-papular, % of patients” value (APG-1387 60 mg) was “(20.0%)”. For the same molecule, the “TRAEs (all Grades): Rash maculo-papular, patients” value (APG-1387 60 mg) was 1, the “TRAEs (all Grades): Tumor pain, patients” value (APG-1387 60 mg) was 0 and the “MTD of APG-1387 monotherapy” value (IV once weekly in a 21-day-cycle) was 45 mg. The “# of pts discontinued treatment: Adverse Event” value (Overall) was 3, the “# of pts discontinued treatment: Clinical progression” value (Overall) was 2 and the “# of pts discontinued treatment: Disease progression” value (Overall) was 14. For the same molecule, the “# of pts discontinued treatment: Lack of efficacy” value (Overall) was 2, the “TRAEs (all Grades): Aspartate aminotransferase increased, % of patients” value (Overall) was “(4.2%)” and the “TRAEs (all Grades): Aspartate aminotransferase increased, patients” value (Overall) was 1. The “TRAEs (all Grades): Bell's palsy, % of patients” value (Overall) was “(8.4%)”, the “TRAEs (all Grades): Bell's palsy, patients” value (Overall) was 2 and the “TRAEs (all Grades): Blood bilirubin increased, % of patients” value (Overall) was “(4.2%)”. The “TRAEs (all Grades): Blood bilirubin increased, patients” value (Overall) was 1, the “TRAEs (all Grades): Decreased appetite, % of patients” value (Overall) was “(8.3%)” and the “TRAEs (all Grades): Decreased appetite, patients” value (Overall) was 2. The “TRAEs (all Grades): Dehydration, % of patients” value (Overall) was “(4.2%)”, the “TRAEs (all Grades): Dehydration, patients” value (Overall) was 1 and the “TRAEs (all Grades): Diarrhoea, % of patients” value (Overall) was “(4.2%)”. For the same molecule, the “TRAEs (all Grades): Diarrhoea, patients” value (Overall) was 1, the “TRAEs (all Grades): Dyspepsia, % of patients” value (Overall) was “(4.2%)” and the “TRAEs (all Grades): Dyspepsia, patients” value (Overall) was 1. The “TRAEs (all Grades): Eructation, patients” value (Overall) was 0, the “TRAEs (all Grades): Fatigue, % of patients” value (Overall) was “(12.5%)” and the “TRAEs (all Grades): Fatigue, patients” value (Overall) was 3. The “TRAEs (all Grades): Headache, % of patients” value (Overall) was “(8.3%)”, the “TRAEs (all Grades): Headache, patients” value (Overall) was 2 and the “TRAEs (all Grades): Lipase increased, % of patients” value (Overall) was “(4.2%)”. For the same molecule, the “TRAEs (all Grades): Lipase increased, patients” value (Overall) was 1, the “TRAEs (all Grades): Myalgia, % of patients” value (Overall) was “(4.2%)” and the “TRAEs (all Grades): Myalgia, patients” value (Overall) was 1. For the same molecule, the “TRAEs (all Grades): Nausea, % of patients” value (Overall) was “(8.3%)”, the “TRAEs (all Grades): Nausea, patients” value (Overall) was 2 and the “TRAEs (all Grades): Peripheral sensory neuropathy, % of patients” value (Overall) was “(4.2%)”. The “TRAEs (all Grades): Peripheral sensory neuropathy, patients” value (Overall) was 1, the “TRAEs (all Grades): Phlebitis, % of patients” value (Overall) was “(4.2%)” and the “TRAEs (all Grades): Phlebitis, patients” value (Overall) was 1. The “TRAEs (all Grades): Pneumonitis, % of patients” value (Overall) was “(4.2%)”, the “TRAEs (all Grades): Pneumonitis, patients” value (Overall) was 1 and the “TRAEs (all Grades): Pruritus, % of patients” value (Overall) was “(8.3%)”. For the same molecule, the “TRAEs (all Grades): Pruritus, patients” value (Overall) was 2, the “TRAEs (all Grades): Rash maculo-papular, % of patients” value (Overall) was “(8.3%)” and the “TRAEs (all Grades): Rash maculo-papular, patients” value (Overall) was 2. For the same molecule, the “TRAEs (all Grades): Tumor pain, patients” value (Overall) was 0, the “Dose Limiting Toxicity (DLTs) observed” value (at 60 mg, lipase increase and facial nerve disorder) was “Two” and the “Most common treatment-related adverse events (TRAEs) (>10%)” value (patients) was “fatigue”. The tolerability (patients, IV once weekly in a 21-day-cycle) was “well tolerated”.
